This passage reports IC50 results from ChEMBL document CHEMBL1140561, “A phosphorylated prodrug for the inhibition of Pin1” (Bioorg Med Chem Lett, 2007).

One assay deals with A2780. Kind of assay: Antiproliferative activity against human A2780 cells. In kind it is functional, cell-based.
The target in assay [1] is Peptidyl-prolyl cis-trans isomerase NIMA-interacting 1 (Homo sapiens, UniProt Q13526). Kind of assay: Inhibition of Pin1 PPIase activity.
Peptidyl-prolyl cis-trans isomerase NIMA-interacting 1, sequence (Q13526 whole entry): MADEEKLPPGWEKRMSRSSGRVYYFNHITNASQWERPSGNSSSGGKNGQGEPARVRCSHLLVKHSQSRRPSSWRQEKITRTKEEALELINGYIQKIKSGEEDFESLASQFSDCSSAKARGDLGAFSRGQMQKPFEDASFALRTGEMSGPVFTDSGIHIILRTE

For the compound `O=C(N[C@H](/C=C1\CCC[C@H]1C(=O)NCCc1c[nH]c2ccccc12)COP(=O)(O)O)OCC1c2ccccc2-c2ccccc21`, the half-maximal inhibitory concentration (IC50) was 46.2 µM in the assay on A2780 and 28.3 µM in assay [1].
In the case of `CC(C)(C)C(=O)OCOP(=O)(OCOC(=O)C(C)(C)C)OC[C@@H](/C=C1\CCC[C@H]1C(=O)NCCc1c[nH]c2ccccc12)NC(=O)OCC1c2ccccc2-c2ccccc21`, in the assay on A2780, it took 26.9 µM to reach half-maximal inhibition (IC50).
